The target of assay [1] is Beta-lactamase TEM (Escherichia coli, UniProt P62593). Nature of the assay: In vitro inhibitory activity against Class A (TEM-1) beta-Lactamases.
The target in assay [2] is Beta-lactamase (Escherichia coli K-12, UniProt P00811).
Description: In vitro inhibitory activity against Class C (Amp-C) beta-Lactamases
Assay [3] concerns the target Metallo-beta-lactamase type 2 (Bacteroides fragilis, UniProt P25910). Nature of the assay: In vitro inhibitory activity against Class B (CCRA) beta-Lactamases.
Assay [4] concerns the target IMI-1 (Enterobacter cloacae, UniProt Q46991). Nature of the assay: In vitro inhibitory activity against Class A (Imi-1) beta-Lactamases.

Results on 4 molecules are retold here after ChEMBL document CHEMBL1149192, “Mechanism of inactivation of beta-lactamases by novel 6-methylidene penems elucidated using electrospray ionization mass spectrometry” (J Med Chem, 2004).

pIC50: −log10 of the molar value.

Sequence of Beta-lactamase TEM (P62593 whole entry): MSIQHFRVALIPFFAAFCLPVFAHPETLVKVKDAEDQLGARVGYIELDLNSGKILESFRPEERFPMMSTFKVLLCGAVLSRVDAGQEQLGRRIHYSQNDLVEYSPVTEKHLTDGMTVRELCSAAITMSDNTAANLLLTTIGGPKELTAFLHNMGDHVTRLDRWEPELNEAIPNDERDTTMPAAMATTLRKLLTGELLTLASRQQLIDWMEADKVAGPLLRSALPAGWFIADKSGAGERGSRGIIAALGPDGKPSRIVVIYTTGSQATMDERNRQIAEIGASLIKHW
Sequence of Beta-lactamase (P00811 whole entry): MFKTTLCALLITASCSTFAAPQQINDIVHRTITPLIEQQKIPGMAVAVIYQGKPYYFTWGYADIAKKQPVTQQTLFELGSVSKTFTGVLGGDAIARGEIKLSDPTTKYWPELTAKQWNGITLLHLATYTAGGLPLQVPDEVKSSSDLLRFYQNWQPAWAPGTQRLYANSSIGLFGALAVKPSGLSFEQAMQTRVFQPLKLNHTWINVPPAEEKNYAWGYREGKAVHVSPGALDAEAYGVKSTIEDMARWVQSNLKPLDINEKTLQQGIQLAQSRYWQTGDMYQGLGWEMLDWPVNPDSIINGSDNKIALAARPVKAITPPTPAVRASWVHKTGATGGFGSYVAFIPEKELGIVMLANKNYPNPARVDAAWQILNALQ
Sequence of IMI-1 (Q46991 whole entry): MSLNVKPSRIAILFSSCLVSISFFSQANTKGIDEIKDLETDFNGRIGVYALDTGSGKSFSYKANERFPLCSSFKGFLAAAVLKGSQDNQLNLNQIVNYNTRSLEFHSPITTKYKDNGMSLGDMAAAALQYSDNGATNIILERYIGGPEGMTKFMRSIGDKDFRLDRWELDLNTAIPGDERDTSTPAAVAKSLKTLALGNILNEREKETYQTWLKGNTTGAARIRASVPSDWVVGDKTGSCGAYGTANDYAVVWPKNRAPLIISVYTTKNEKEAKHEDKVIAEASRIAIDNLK
Sequence of Metallo-beta-lactamase type 2 (P25910 whole entry): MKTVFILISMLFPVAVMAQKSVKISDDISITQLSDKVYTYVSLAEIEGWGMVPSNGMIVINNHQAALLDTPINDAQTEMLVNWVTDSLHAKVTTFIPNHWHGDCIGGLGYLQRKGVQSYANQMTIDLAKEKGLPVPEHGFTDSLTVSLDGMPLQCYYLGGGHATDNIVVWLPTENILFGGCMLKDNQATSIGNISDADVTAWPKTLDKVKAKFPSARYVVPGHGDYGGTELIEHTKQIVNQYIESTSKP

In general, pIC50 refers to the negative decadic logarithm of the IC50, by convention in mol/L. High values mean a low IC50, low ones a high IC50. With `O=C(O)C1=CS[C@@H]2/C(=C\c3cn4c5c(sc4n3)CCC5)C(=O)N12`, the values for the pIC50 in assay [1] and in assay [2] were 9.00 and 8.70, respectively.
As for `O=C(O)C1=CS[C@@H]2/C(=C\c3cc4n(n3)CCC4)C(=O)N12`, the pIC50 in assay [1] is 9.00; in assay [2] it was 8.70.
For the molecule `O=C(O)C1=CS[C@@H]2/C(=C\c3cnc4n3CCOC4)C(=O)N12`, the pIC50 is 7.18 in assay [3], 9.40 in assay [1], 8.10 in assay [4] and 8.30 in assay [2].
On the same counts, the results for `O=C(O)C1=CS[C@@H]2/C(=C\c3cnc4n3CCNC4)C(=O)N12` are 6.49, 8.30, 7.55 and 8.22.
